30 molecules from patent US6448260B2, “Endothelin receptor antagonists” (SmithKline Beecham Corporation, priority 1991, dated 2002) can be followed below.

In turn, `CCCOc1ccc2c(c1)[C@H](c1ccc(OC)cc1OCC(=O)O)[C@@H](CNS(=O)(=O)C(F)(F)F)[C@@H]2c1ccc2c(c1)OCO2` (racemic) [Example 140, (1RS, 2SR, 3RS)-2-Trifluoromethylsulfonamidomethyl-3-(2-carboxymethoxy-4-methoxyphenyl)-1-(3,4-methylenedioxyphenyl)-5-(prop-1-yloxy)indane] registered a melting point of 184 to 186 °C.

`COc1ccc([C@H]2c3ccccc3[C@@H](c3ccc(OC)c(OC)c3)[C@@H]2C(=O)O)cc1` (racemic) [Example 26, (1RS, 2RS, 3SR)-1-(3,4-Dimethoxyphenyl)-3-(4-methoxyphenyl)indane-2-carboxylic acid]: the melting point lay in the range of 126 to 128 °C. The result for `CCCOc1ccc2c(c1)[C@H](c1ccc(OC)cc1OCC(=O)[O-])[C@@H](C(=O)O[C@@H](C)OC(=O)C(C)(C)OC)[C@@H]2c1ccc2c(c1)OCO2.[Na+]` (racemic) reads 178 to 181 °C (dec.); that for `COc1ccc([C@@H]2c3cc(O)ccc3[C@H](c3c[nH]c4ccccc34)[C@H]2C(=O)O)cc1` (racemic) [Example 109, (1RS, 2SR, 3RS)-5-Hydroxy-1-(3-indolyl)-3-(4-methoxyphenyl)indane-2-carboxylic acid], 138 to 140 °C. The result for `O=C(O)[C@H]1[C@H](c2ccc3c(c2)OCO3)c2ccccc2[C@@H]1c1ccccc1` (racemic) [Example 8, (1RS, 2RS, 3SR)-1-(3,4-Methylenedioxyphenyl)-3-phenylindane-2-carboxylic acid] reads 186 to 187 °C. The result for `CCCOc1ccc2c(c1)[C@H](c1ccc(OC)cc1OC(C)C)[C@@H](C(=O)O)[C@@H]2c1ccc2c(c1)OCO2` (racemic) [Example 42, (1RS, 2SR, 3RS)-3-[4-Methoxy-2-(prop-2-yloxy)phenyl]-1-(3,4-methylenedioxyphenyl)-5-(prop-1-yloxy)indane-2-carboxylic acid] reads 75 to 79 °C; that for `COc1ccc([C@@H]2c3ccccc3[C@H](c3ccccc3)[C@H]2C(=O)O)cc1` (racemic) [Example 1, (1RS,2RS,3SR)-1-(4-Methoxyphenyl)-3-phenylindane-2-carboxylic acid], 164 to 166 °C; that for `COc1cc(OC)c([C@H]2c3ccc(O)cc3[C@@H](c3ccc4c(c3)OCO4)[C@@H]2C(=O)O)c(OC)c1` (racemic) [Example 78, (1RS, 2SR, 3RS)-5-Hydroxy-3-(3,4-methylenedioxyphenyl)-1-(2,4,6-trimethoxyphenyl)indane-2-carboxylic acid], 225 to 226 °C. `COc1ccc([C@@H]2c3cc(OC)ccc3[C@@H](c3ccc4c(c3)OC(OC)O4)[C@H]2C(=O)O)cc1` (mixture of isomers) [Example 84, (1RS, 2SR, 3RS)-5-Methoxy-3-(4-methoxyphenyl)-1-(2-methoxy4,5-methylenedioxyphenyl)indane-2-carboxylic acid] showed a melting point of 149 to 150 °C. As for `CCCOc1ccc2c(c1)[C@H](c1ccccc1O)[C@@H](C(=O)O)[C@@H]2c1ccc2c(c1)OCO2` (racemic) [Example 36, (1RS, 2SR, 3RS)-3-(2-Hydroxyphenyl)-1-(3,4-methylenedioxyphenyl)-5-(prop-1-yloxy)indane-2-carboxylic acid], the melting point fell in the range of 97 to 98 °C. `COc1ccc(C2C(C(=O)O)=C(c3ccccc3)c3ccccc32)cc1` (racemic) [Example 15, (1RS)-1-(4-Methoxyphenyl)-3-phenylindene-2-carboxylic acid] registered a melting point of 191 to 193 °C.

With `CCCOc1ccc2c(c1)[C@H](c1ccc(OC)cc1OCC(C)C)[C@@H](C(=O)O)[C@@H]2c1ccc2c(c1)OCO2` (racemic) [Example 43, (1RS, 2SR, 3RS)-3-[4-Methoxy-2-(2-methylprop-1-yloxy)phenyl]-1-(3,4-methylenedioxyphenyl)-5-(prop-1-yloxy)indane-2-carboxylic acid], the melting point fell in the range of 85 to 89 °C. Molecule `COc1cccc([C@@H]2c3ccccc3[C@H](c3ccc4c(c3)OCO4)[C@H]2C(=O)O)c1` (racemic) [Example 5, (1RS, 2SR, 3SR)-1-(3-Methoxyphenyl)-3-(3,4-methylenedioxyphenyl)indane-2-carboxylic acid] showed a melting point of 131 to 133 °C. The result for `COc1ccc([C@@H]2c3ccc(O)cc3[C@H](c3ccc4c(c3)OCO4)[C@H]2C(=O)O)cc1` (racemic) [Example 81, (1RS, 2SR, 3SR)-5-Hydroxy-3-(3,4-methylenedioxyphenyl)-1-(4-methoxyphenyl)indane-2-carboxylic acid] reads 124 to 127 °C. The result for `CCCOc1ccc2c(c1)[C@H](c1ccccc1OCC(=O)O)[C@@H](C(=O)O)[C@@H]2c1ccc2c(c1)OCO2` (racemic) [Example 37, (1 RS, 2SR, 3RS)-3-(2-Carboxymethoxyphenyl)-1-(3,4-methylenedioxyphenyl)-5-(prop-1-yloxy)indane-2-carboxylic acid] reads 169 to 170 °C.

Molecule `COc1ccc([C@H]2c3cc(OC)ccc3[C@@H](c3ccc4c(c3)OCO4)[C@H]2C(=O)O)cc1` (racemic) [Example 28, (1RS, 2SR, 3SR)-5-Methoxy-3-(4-methoxyphenyl)-1-(3,4-methylenedioxyphenyl)indane-2-carboxylic acid] yielded a melting point of 129 to 131 °C. The result for `C=CCc1cc(OC)ccc1[C@H]1c2cc(OCCC)ccc2[C@@H](c2ccc3c(c2)OCO3)[C@@H]1C(=O)O` (racemic) [Example 60, (1RS, 2SR, 3SR)-3-[4-Methoxy-2-(prop-2-en-1-yl)phenyl]-1-(3,4-methylenedioxyphenyl)-5-(prop-1-yloxy)indane-2-carboxylic acid] reads 126 to 127 °C; that for `COc1ccc([C@H]2c3ccccc3[C@@H](c3ccc(NC(C)=O)cc3)[C@H]2C(=O)O)cc1` (racemic) [Example 23, (1RS, 2RS, 3SR)-1-(4-Acetamidophenyl)-3-(4-methoxyphenyl)indane-2-carboxylic acid], 231 to 232 °C. As for `CCCOc1ccc2c(c1)[C@H](c1ccc(OC)cc1Oc1ncccc1C(=O)O)[C@@H](C(=O)O)[C@@H]2c1ccc2c(c1)OCO2` (racemic) [Example 98, (1RS, 2SR, 3RS)-3-[2-[(3-Carboxypyridin-2-yl)oxy]-4-methoxyphenyl]-1-(3,4-methylenedioxyphenyl)-5-(prop-1-yloxy) indane-2-carboxylic acid], the melting point lay within 152 to 155 °C. The result for `CCCOc1ccc2c(c1)[C@H](c1ccc(OC)cc1-c1ccccc1)[C@@H](C(=O)O)[C@@H]2c1ccc2c(c1)OCO2` (racemic) [Example 56, (1RS, 2SR, 3RS)-3-(4-Methoxy-2-phenylphenyl)-1-(3,4-methylenedioxyphenyl)-5-(prop-1-yloxy)indane-2-carboxylic acid] reads 199 to 200 °C; that for `CCCOc1ccc2c(c1)[C@H](c1ccc(OC(C)C)cc1OCC(=O)O)[C@H](C(=O)O)[C@@H]2c1ccc2c(c1)OCO2` (racemic) [Example 95, (1RS, 2RS, 3RS)-3-(2-Carboxymethoxy-4-isopropyloxyphenyl)-1-(3,4-methylenedioxyphenyl)-5-(prop-1-yloxy)indane-2-carboxylic acid], 183 to 185 °C. On to `COc1ccc([C@H]2c3cc(O)ccc3[C@@H](c3ccc4c(c3)OCO4)[C@@H]2C(=O)O)c(OC)c1` (racemic) [Example 76, (1RS, 2SR, 3RS)-3-(2,4-Dimethoxyphenyl)-5-hydroxy-1-(3,4-methylenedioxyphenyl)indane-2-carboxylic acid], for which the melting point was in the range of 110 to 113 °C.

For the molecule `CCCCc1ccc2c(c1)[C@H](c1ccc(OC)cc1OCC(=O)O)[C@@H](C(=O)O)[C@@H]2c1ccc2c(c1)OCO2` (racemic) [Example 89, (1RS, 2SR, 3RS)-5-Butyl-3-(2-carboxymethoxy-4-methoxyphenyl)-1-(3,4-methylenedioxyphenyl) indane-2-carboxylic acid], the melting point lay in the range of 176 to 177 °C. The result for `O=C(O)[C@H]1[C@H](c2ccc(F)cc2)c2ccccc2[C@@H]1c1ccc2c(c1)OCO2` (racemic) [Example 4, (1RS, 2SR, 3SR)-1-(4-Fluorophenyl)-3-(3,4-methylenedioxyphenyl)indane-2-carboxylic acid] reads 146 to 149 °C. In turn, `O=C(O)[C@H]1[C@H](c2ccc3c(c2)OCO3)c2ccc(O)cc2[C@@H]1c1ccc(OC(F)(F)F)cc1` (racemic) [Example 108, (1RS, 2RS, 3SR)-5-Hydroxy-1-(3,4-methylenedioxyphenyl)-3-(4-trifluoromethoxyphenyl)indane-2-carboxylic acid] had a melting point of 100 to 104 °C.

As for `O=C(O)[C@H]1[C@H](c2ccc(O)cc2)c2ccccc2[C@@H]1c1ccc2c(c1)OCO2` (racemic) [Example 25, (1RS, 2SR, 3SR)-1-(4-Hydroxyphenyl)-3-(3,4-methylenedioxyphenyl)indane-2-carboxylic acid], the melting point is 94 to 96 °C.

Molecule `CCCCOc1ccc2c(c1)[C@H](C1(OC)C=CC=CC1)[C@@H](C(=O)O)[C@@H]2c1ccc2c(c1)OCO2` (mixture of isomers) [Example 107, (1RS, 2SR, 3RS)-5-(But-1-yloxy)-3-(1-methoxyphenyl)-1-(3,4-methylenedioxyphenyl)indane-2-carboxylic acid] displayed a melting point of 157 to 158 °C.

The molecule `COc1ccc([C@@H]2c3ccccc3[C@H](c3ccc4c(c3)OCO4)[C@H]2c2nnn[nH]2)cc1` (racemic) (hydrate or solvate) [Example 9, (1RS, 2SR, 3SR)-1-(4-Methoxyphenyl)-3-(3,4-methylenedioxyphenyl)-2-(tetrazol-5-yl)indane] displayed a melting point of 155 to 157 °C.

Regarding `COc1ccc([C@@H]2c3cc(O)ccc3[C@H](c3cc4c(cc3OC)OCO4)[C@H]2C(=O)O)cc1` (racemic) [Example 82, (1RS, 2SR, 3RS)-5-Hydroxy-3-(4-methoxyphenyl)-1-(2-methoxy-4,5-methylenedioxyphenyl)indane-2-carboxylic acid], the melting point is 236 to 239 °C.

As to `COc1ccc([C@@H]2c3cc(OC)ccc3[C@H](c3ccc4c(c3OC)OCO4)[C@H]2C(=O)O)cc1` (racemic) [Example 93, (1RS, 2SR, 3RS)-5-Methoxy-1-(2-methoxy-3,4-methylenedioxyphenyl)-3-(4-methoxyphenyl)indane-2-carboxylic acid], the melting point fell in the range of 148 to 149 °C.
